The text below walks through data of patent US20170204102A1, “AGRICULTURAL AGENT CONTAINING 2,5-DIKETOPIPERAZINE DERIVATIVE AS ACTIVE INGREDIENT” (NAPRO BIOTEC INC., priority 2010, published 2017).

Data set [1] deals with PR-1α promoter fused to the GUS gene. Description: PR-1α-GUS activity in tobacco leaf. The note with it: control 54. Type of data set: in vivo. The method, then:
After adding 960 μL of stop buffer (0.2M sodium carbonate) to make 1 mL, fluorescence was measured using a TKO 100 fluorometer (Hoefer Scientific Instruments, USA).

Data set [2] relates to anthracnose-causing Colletotrichum orbiculare. Type of data set: in vivo. The settings on record: tobacco leaf, control 240.3.
The test system of data set [3] is Pectobacterium carotovorum SCC1. Put plainly: Inhibition of soft rot lesion in tobacco leaf. In kind it is in vivo.
Data set [4] has the same test system. Description: Inhibition of soft rot lesion in cucumber leaf. Type of data set: in vivo.
Data set [5] has as its system Colletotrichum orbiculare. In kind it is in vivo. The settings on record: cucumber; for Number of anthractic lesions in first leaf: control 12.5; for Number of anthractic lesions in second leaf: control 96.8.
A further data set relates to PR-1 gene. The note with it: background art; cited from earlier work.
A further data set has as its system PDF1.2 gene. The settings on record: background art; cited from earlier work.
Another data set deals with cucumber leaf. Put plainly: Promotion of growth of cucumber leaf. The settings on record: Cucumis sativus, read-out: Width of leaf.
The next data set deals with Colletotrichum acutatum. Put plainly: Inhibition of anthracnose in red pepper fruit after soil drench. The note with it: control 50.
Data set [6] deals with Pectobacterium carotovorum SCC1. Description: Inhibition of naturally occurring soft rot in Chinese cabbage hydrocultured in summer. Type of data set: in vivo. The settings on record: for Appearance of soft rot: 20 ppm, sprayed, examined 1 week later, control 58. The text has this:
After spraying test compounds to hydrocultured Chinese cabbage, naturally occurring soft rot was examined 1 week later.

Where two headings read alike, the source gives them in different places.

`CSC(=O)c1cccc2nnsc12` [BTH, benzo-1,2,3-thiadiazole-7-carbothioic acid S-methyl ester, reference compound]: in [1] (1 ppm), the PR-1α-GUS activity is on record as 21,015 nM MU/10 mg/h. In addition, the “Number of anthractic lesions” value in data set [2] (1 ppm) was found to be 58.3. Also, the Area of lesion is given as 52.5% in data set [3] (1 ppm, Table 3, control 87.5); 95% in data set [3] (1 ppm, Table 4, control 100); 50% in data set [3] (1 ppm, Table 5, control 73.75); 52.5% in data set [3] (10 ppm, Table 3, control 87.5); 95% in [3] (10 ppm, Table 4, control 100); 50% in data set [3] (10 ppm, Table 5, control 73.75). In addition, the Area of lesion stood at 52.5% in data set [3] (100 ppm, Table 3, control 87.5); 95% in data set [3] (100 ppm, Table 4, control 100); 50% in data set [3] (100 ppm, Table 5, control 73.75); 100% in [4] (1 ppm, Table 6, control 100); 90% in data set [4] (1 ppm, Table 7, control 100); 100% in data set [4] (1 ppm, Table 8, control 100). Moreover, the Area of lesion in data set [4] (10 ppm, Table 6, control 100) was found to be 100%; in data set [4] (10 ppm, Table 7, control 100) it was 90%; in data set [4] (10 ppm, Table 8, control 100) it was 100%; in data set [4] (100 ppm, Table 6, control 100), 100%; in [4] (100 ppm, Table 7, control 100) it was 90%; in data set [4] (100 ppm, Table 8, control 100), 100%. Also, the “Number of anthractic lesions in first leaf” value (shortened to “Number … in first leaf”) in data set [5] (0.1 ppm), in data set [5] (1 ppm), in data set [5] (10 ppm) and in [5] (100 ppm) was 0.8 in each case. Also, the “Number of anthractic lesions in second leaf” value (“Number … in second leaf” below) in data set [5] (0.1 ppm), in data set [5] (1 ppm), in [5] (10 ppm) and in [5] (100 ppm) was 100.3 throughout. Moreover, the “Induction of expression of the PR-1 gene” value with PR-1 gene is recorded as “induces the expression of the PR-1 gene”. Further, the “Induction of expression of the PDF1.2 gene” value in the data set with PDF1.2 gene is “does not induce the expression”. For the same molecule, the response vs control in vivo at 1 ppm in the data set with cucumber leaf was 93.8%. Also, the response vs control in vivo at 10 ppm in the data set with cucumber leaf was found to be 90.5%. Also, in the data set on cucumber leaf, the response vs control in vivo at 100 ppm came to 92%. The Appearance of anthracnose with Colletotrichum acutatum (1 ppm) was found to be 25%; in the data set on Colletotrichum acutatum (10 ppm), 0%; in the data set with Colletotrichum acutatum (100 ppm), 0%.
As to `CC(C)CC1NC(=O)CNC1=O` (stereo not shown) [Compound No. 2, 3-(2-methylpropyl)-2,5-diketopiperazine], the melting point lay in the range of 241 to 244 °C. This molecule also gave an Area of lesion in [3] (1 ppm, Table 3, control 87.5) of 32.5%. Also, the Area of lesion in [3] (10 ppm, Table 3, control 87.5) amounted to 40%. This molecule registered an Area of lesion in data set [3] (100 ppm, Table 3, control 87.5) of 60%. For the same molecule, in data set [4] (1 ppm, Table 6, control 100), the Area of lesion came to 92.5%. In data set [4] (10 ppm, Table 6, control 100), the Area of lesion worked out at 82.5%. This molecule also yielded an Area of lesion in [4] (100 ppm, Table 6, control 100) of 50%.
For the molecule `CC1NC(=O)C2CCCN2C1=O` (stereo not shown) [Compound No. 25, 3-methylhexahydropyrrolo[1,2-a]pyrazin-1,4-dione], the Area of lesion in [3] (1 ppm, Table 4, control 100) was 15%; in data set [3] (10 ppm, Table 4, control 100), 12.5%; in [3] (100 ppm, Table 4, control 100), 0%; in data set [4] (1 ppm, Table 7, control 100) it was 78%; in data set [4] (10 ppm, Table 7, control 100), 73%; in data set [4] (100 ppm, Table 7, control 100) it was 85%. The “Number … in first leaf” value in [5] (0.1 ppm) is given as 3.8; in data set [5] (1 ppm), 1.3; in data set [5] (10 ppm) it was 1.0; in data set [5] (100 ppm), 2.0. The “Number … in second leaf” value is listed as 37.0 in [5] (0.1 ppm), 46.0 in data set [5] (1 ppm), 22.5 in data set [5] (10 ppm) and 27.8 in data set [5] (100 ppm). Moreover, the “Appearance of soft rot” value in [6] stood at 19%. Also, the response vs control in vivo at 1 ppm in the data set on cucumber leaf worked out at 121%. For the same molecule, the response vs control in vivo at 10 ppm in the data set on cucumber leaf was found to be 119%. Also, the response vs control in vivo at 100 ppm with cucumber leaf was 123%. The figures for the Appearance of anthracnose in the data set on Colletotrichum acutatum (1 ppm), in the data set on Colletotrichum acutatum (10 ppm) and in the data set with Colletotrichum acutatum (100 ppm) were 0%, 25% and 25%, respectively.
On to `CC(C)C1NC(=O)C2CCCN2C1=O` (stereo not shown) [Compound No. 26, 3-isopropylhexahydropyrrolo[1,2-a]pyrazin-1,4-dione], for which the PR-1α-GUS activity in data set [1] (0.1 ppm) was 34,967 nM MU/10 mg/h. Also, the PR-1α-GUS activity in data set [1] (1 ppm) is 27,497 nM MU/10 mg/h. For the same molecule, the “Number of anthractic lesions” value in data set [2] (0.1 ppm) worked out at 67.1. The “Number of anthractic lesions” value in data set [2] (1 ppm) is listed as 63.3. For the same molecule, in the data set on cucumber leaf, the response vs control in vivo at 1 ppm came out at 112%, the response vs control in vivo at 10 ppm was determined as 128% and the response vs control in vivo at 100 ppm was determined as 129%.
Turning to `CCC(C)C1NC(=O)C2CCCN2C1=O` (stereo not shown) [Compound No. 28, 3-(1-methylpropyl)hexahydropyrrolo[1,2-a]pyrazin-1,4-dione], the melting point was in the range of 104 to 105 °C. This molecule also showed an Area of lesion in data set [3] (1 ppm, Table 4, control 100) of 12.5%. Besides, in [3] (10 ppm, Table 4, control 100), the Area of lesion turned out to be 82.5%. In data set [3] (100 ppm, Table 4, control 100), this molecule gave an Area of lesion of 2.5%. The Area of lesion in [4] (1 ppm, Table 7, control 100) was determined as 55%. The Area of lesion in [4] (10 ppm, Table 7, control 100) came out at 83%. The molecule further gave an Area of lesion in data set [4] (100 ppm, Table 7, control 100) of 65%. Moreover, in data set [5] (0.1 ppm), the “Number … in first leaf” value was found to be 5.3 and the “Number … in second leaf” value is reported as 55.3. In data set [5] (1 ppm), the “Number … in first leaf” value is 2.3 and the “Number … in second leaf” value turned out to be 62.3. Also, in [5] (10 ppm), the “Number … in first leaf” value turned out to be 12.3 and the “Number … in second leaf” value was found to be 87.3. Further, in data set [5] (100 ppm), the “Number … in first leaf” value worked out at 10.8 and the “Number … in second leaf” value stood at 77.3. In addition, the “Appearance of soft rot” value in [6] was 49%. Moreover, in the data set with cucumber leaf, the response vs control in vivo at 1 ppm amounted to 100%, the response vs control in vivo at 10 ppm was 120% and the response vs control in vivo at 100 ppm was found to be 129%. The molecule also gave an Appearance of anthracnose in the data set on Colletotrichum acutatum (1 ppm) of 0%. The Appearance of anthracnose in the data set with Colletotrichum acutatum (10 ppm) was 25%. Further, the Appearance of anthracnose in the data set with Colletotrichum acutatum (100 ppm) was determined as 0%.
In the case of `O=C1NCC(=O)N2CCCC12` (stereo not shown) [Compound No. 29, hexahydropyrrolo[1,2-a]pyrazin-1,4-dione], the Area of lesion in data set [3] (1 ppm, Table 4, control 100) was 27.5%; in [3] (10 ppm, Table 4, control 100), 0%; in data set [3] (100 ppm, Table 4, control 100), 0%; in [4] (1 ppm, Table 7, control 100) it was 43%; in [4] (10 ppm, Table 7, control 100), 63%; in [4] (100 ppm, Table 7, control 100) it was 90%. The “Number … in first leaf” value in [5] (0.1 ppm) amounted to 0.8; in data set [5] (1 ppm), 5.0; in data set [5] (10 ppm) it was 10.0; in [5] (100 ppm), 5.0. In addition, the “Number … in second leaf” value was 51.3 in data set [5] (0.1 ppm), 35.8 in data set [5] (1 ppm), 55.5 in data set [5] (10 ppm) and 87.0 in [5] (100 ppm). In addition, the “Appearance of soft rot” value in data set [6] is listed as 14%. For the same molecule, the “Inhibitory effect against soft rot in Chinese cabbage (in words)” value in data set [6] (Table 11, FIG. 10) is “very superior inhibitory effect”. The response vs control in vivo at 1 ppm with cucumber leaf came out at 100%. The response vs control in vivo at 10 ppm in the data set with cucumber leaf is 120%. Moreover, the response vs control in vivo at 100 ppm in the data set on cucumber leaf came to 115%. In addition, the Appearance of anthracnose with Colletotrichum acutatum (1 ppm), in the data set on Colletotrichum acutatum (10 ppm) and in the data set on Colletotrichum acutatum (100 ppm) was 0% each time.
